{
  "source": "patent US20240285525A1",
  "about": "“METHODS AND MATERIALS FOR TREATING CANCER” (The Johns Hopkins University, priority 2021, published 2024)",
  "key": {"[1]": {"test_system": "GL261 cells", "test": "Inhibition of endocytosis (nanotube uptake, flow cytometry)", "type": "cell-based, mouse", "conditions": "inhibitor 30 min then nanotubes 3 hours, 30 μg/mL DMA, 500 μg/mL fucoidan, 10 μM LatB", "experimental": "200,000 GL261 cells were plated per well in 12-well plates and incubated at 37° C. and 5% CO2 overnight. The following day, media was replaced with fresh media, and inhibitor stock solutions were diluted and delivered to the cells at targeted concentrations: 1.25 μg/mL cytochalasin D (CytD), 10 μM latrunculin B (LatB), 15 μg/mL nocodazole, 5 μg/mL fillipin, 2.5 μg/mL nystatin, 1.32 mg/mL methyl-β-cyclodextrin (MPCD), 2.5 μg/mL chlorpromazine (CPZ), 12.5 μg/mL dynasore, 0.2 μg/mL pertussis toxin (PTX), 2 μg/mL cholera toxin (CTX), 30 μg/mL 5-(N,N-dimethyl)-amiloride hydrochloride (DMA), and 500 μg/mL fucoidan. Cells with no inhibitor were used as positive controls. Plates were gently shaken by hand to ensure even distribution of inhibitors, and placed in the incubator for 30 minutes. […] Cells were washed twice with 1 mL PBS, trypsin-EDTA at 37° C. was added to each well, the contents of each well were individually mixed via up and down pipetting and transferred to 1.5 mL centrifuge tubes. Cells were washed twice with PBS, reconstituted in 500 μL PBS and transferred to flow cytometry tubes. 5 μL of 10 μg/mL propidium iodide (PI) solution was added to each tube and vortexed. The cells were run on a BD FACSCanto flow cytometer and were examined for PI and HEX fluorescence via excitation at 488 nm with a 585/42 filter. Cells were gated by PI staining to select for live cells, and by scattering (FSC-A and SSC-A) to select for single cells. To evaluate cytotoxicity of inhibitors, 10,000 GL261 cells were plated in 96-well plates and incubated overnight in a 37° C. 5% C02 incubator. The next day, media was replaced with fresh formulated media, and inhibitor stock solutions were diluted and delivered to the cells at concentrations mentioned above. Plates were gently shaken by hand and placed in the incubator for 3 hours. Cell viability was measured using CellTiter-Glo 2.0 assay (Promega, Madison, WI) following the manufacturer's protocol. Luminescence was recorded using a Synergy H1 microplate reader (Biotek, Winooski, VT), and cell viability was normalized to untreated cells."}, "[2]": {"test": "Histopathological analysis of organs (H&E)", "type": "in vivo, mouse", "source_text": "8 week old mice were used for this study. […] The photon counts within each ROI were quantified.\nFollowing perfusion and fixation with 10% neutral buffered formalin, tissues were processed into paraffin blocks using standard histology techniques, sectioned at a thickness of […], stained with hematoxylin and eosin (H&E), and evaluated using light microscopy."}, "[3]": {"test_system": "GL261 cells", "test": "Cell viability (CellTiter-Glo 2.0)", "type": "cell-based, mouse", "conditions": "12 hours + 36 hours at 37° C.; NT 5-6.4 μM ssDNA-amphiphiles, DOX 5 μg/mL, NT-DOX same concentrations; normalized to untreated", "experimental": "The samples were incubated with cells for 12 hours at 37° C., followed by a single wash with PBS. 100 μL of fresh media was added, and cells were incubated at 37° C. for an additional 36 hours. […] The luminescence signal of each well was measured, and the luminescence of each group was normalized to the luminescence of the untreated cells."}, "[4]": {"test_system": "GL261-Luc orthotopic tumor", "test": "Intracranial delivery via CED in orthotopic GL261-Luc mouse model"}, "[5]": {"test_system": "M2 macrophages from primary CD14+human monocytes", "test": "Macrophage gene expression via RT-qPCR", "type": "cell-based", "conditions": "1 μM TS free or in nanotubes, or empty nanotubes; compared to untreated M2-macrophages", "experimental": "Freshly isolated primary CD14+human monocytes were plated at a density of 500,000 cells/well in the presence of 50 ng/mL of M-CSF (macrophage colony stimulating factor) to differentiate them to MO-macrophages. The media were renewed with the same composition (DMEM+10% FBS+1% Penicillin-Streptomycin+50 ng/mL M-CSF) every 2-3 days until complete differentiation. The macrophages were treated with 20 ng/mL of IL-4 for 3 days differentiate them to an M2-phenotype.\nCells were detached using 1× Tryp1E Express Enzyme (ThermoFisher Scientific) and washed with PBS. TRIzol (ThermoFisher Scientific) was added to the cells followed by absolute ethanol. mRNA was collected in Zymo-Spin IC columns (Zymo Research) by centrifuging the cell solution in the spin columns. The mRNA was washed and resuspend in RNAse and DNAse free water. After evaluating the mRNA concentration, the cDNA reaction mixture was prepared by adding the mRNA to nuclease-free water, iScript Reverse Transcriptase (Bio-Rad) and 5× iScript Reaction Mix. The cDNA reaction was performed using TurboCycler Lite Thermal Cycler (Blue-Ray Biotech). The cDNA was then aliquoted and added to a mixture of primers for the genes 1112b, 118, Nos2, 1110, Tgfb1 and Fizz1 respectively along with iTaq™ Universal SYBR® Green Supermix (Bio-Rad). […] Data was analysed using the ΔΔCt method. […]"}},
  "data": [
    {"compound": "CN(C)c1nc(N)c(C(=O)N=C(N)N)nc1Cl.Cl", "note": "[DMA, 5-(N,N-dimethyl)-amiloride hydrochloride]", "values": [
      {"measurement": "inhibition of cellular uptake of the nanotubes", "setting": "[1]", "value": 44, "unit": "%"}
    ]},
    {"compound": "COc1cccc2c1C(=O)c1c(O)c3c(c(O)c1C2=O)C[C@@](O)(C(=O)CO)C[C@@H]3O[C@H]1C[C@H](N)[C@H](O)[C@H](C)O1.Cl", "note": "[DOX, Doxorubicin-hydrogen chloride]", "values": [
      {"measurement": "histology of liver", "setting": "[2]", "value": "multifocal areas of hepatocyte degeneration and necrosis"},
      {"measurement": "histology of spleen", "setting": "[2]", "value": "diffuse, moderate to marked depletion of the spleen white pulp associated with zonal lymphocytic apoptosis and necrosis"},
      {"measurement": "histology of lung, kidney and heart tissues", "setting": "[2]; compared to the PBS control", "value": "no significant findings"},
      {"measurement": "viability of GL261 cells", "setting": "[3]", "value": "47±6", "unit": "%"},
      {"measurement": "body weight gained", "setting": "[4]; after 28 days", "value": 6, "unit": "%"},
      {"measurement": "decrease in tumor signal (bioluminescence)", "setting": "[4]; day 28, pump 70 μM DOX (0.2 mg DOX/Kg mouse), about 14 days, 0.25 μL/hour", "value": 80, "unit": "%"},
      {"measurement": "median survival time", "setting": "[4]; n=9-10 per group, NT 95 μM ssDNA-amphiphiles, DOX 70 μM", "value": 34.5, "unit": "days"}
    ]},
    {"compound": "C/C1=C/C(=O)O[C@@H]2C[C@@H](CC[C@H](C)/C=C\\CC1)O[C@@](O)([C@@H]1CSC(=O)N1)C2", "note": "[LatB, latrunculin B]", "values": [
      {"measurement": "inhibition of cellular uptake of the nanotubes", "setting": "[1]", "value": 20, "unit": "%"}
    ]},
    {"compound": "C=C(NC(=O)C(=C)NC(=O)c1csc(C2=N[C@@H]3c4csc(n4)[C@H]4NC(=O)c5csc(n5)[C@H]([C@](C)(O)[C@@H](C)O)NC(=O)[C@H]5CSC(=N5)/C(=C/C)NC(=O)[C@H]([C@@H](C)O)NC(=O)c5csc(n5)[C@]3(CC2)NC(=O)[C@H](C)NC(=O)C(=C)NC(=O)[C@H](C)NC(=O)[C@H]([C@@H](C)CC)N[C@@H]2C=Cc3c([C@H](C)O)cc(nc3[C@H]2O)C(=O)O[C@@H]4C)n1)C(N)=O", "note": "[free TS, thiostrepton]", "values": [
      {"measurement": "expression of genes associated with M2-like macrophages (ΔΔCt)", "setting": "[5]", "value": "successful at downregulating genes associated with M2-like macrophages"},
      {"measurement": "expression of genes of M1-like macrophages (ΔΔCt)", "setting": "[5]", "value": "upregulating genes of M1-like macrophages"}
    ]},
    {"compound": "fucoidan", "values": [
      {"measurement": "inhibition of cellular uptake of the nanotubes", "setting": "[1]", "value": 57, "unit": "%"}
    ]}
  ]
}
